Patent US20170252323A1, “4-[2-(Dipropylamino)ethyl]-1,3-dihydro-2H-indol-2-one (Ropinirole) a New Inhibitor of Jack bean Urease Enzyme: An Example of Drug Repurposing” (priority 2016, published 2017)
Where two headings read alike, the source gives them in different places.

Legend:
[1] = molecular target: Jack bean (Canavalia ensiformis) urease (Canavalia ensiformis, UniProt P07374); test: biochemical
From the text: Each point in the constructed graphs represents the mean of the three experiments.

[2] = molecular target: urease enzyme (Canavalia ensiformis, UniProt P07374); test: Mechanistic studies (Lineweaver-Burk, secondary replot, Dixon plot); type: biochemical; details: Lineweaver-Burk and Dixon plots; substrate 0.5-4.0 mM; Ropinirole 5, 10, 20 μM
Chain of urease enzyme (P07374 whole entry, looked up): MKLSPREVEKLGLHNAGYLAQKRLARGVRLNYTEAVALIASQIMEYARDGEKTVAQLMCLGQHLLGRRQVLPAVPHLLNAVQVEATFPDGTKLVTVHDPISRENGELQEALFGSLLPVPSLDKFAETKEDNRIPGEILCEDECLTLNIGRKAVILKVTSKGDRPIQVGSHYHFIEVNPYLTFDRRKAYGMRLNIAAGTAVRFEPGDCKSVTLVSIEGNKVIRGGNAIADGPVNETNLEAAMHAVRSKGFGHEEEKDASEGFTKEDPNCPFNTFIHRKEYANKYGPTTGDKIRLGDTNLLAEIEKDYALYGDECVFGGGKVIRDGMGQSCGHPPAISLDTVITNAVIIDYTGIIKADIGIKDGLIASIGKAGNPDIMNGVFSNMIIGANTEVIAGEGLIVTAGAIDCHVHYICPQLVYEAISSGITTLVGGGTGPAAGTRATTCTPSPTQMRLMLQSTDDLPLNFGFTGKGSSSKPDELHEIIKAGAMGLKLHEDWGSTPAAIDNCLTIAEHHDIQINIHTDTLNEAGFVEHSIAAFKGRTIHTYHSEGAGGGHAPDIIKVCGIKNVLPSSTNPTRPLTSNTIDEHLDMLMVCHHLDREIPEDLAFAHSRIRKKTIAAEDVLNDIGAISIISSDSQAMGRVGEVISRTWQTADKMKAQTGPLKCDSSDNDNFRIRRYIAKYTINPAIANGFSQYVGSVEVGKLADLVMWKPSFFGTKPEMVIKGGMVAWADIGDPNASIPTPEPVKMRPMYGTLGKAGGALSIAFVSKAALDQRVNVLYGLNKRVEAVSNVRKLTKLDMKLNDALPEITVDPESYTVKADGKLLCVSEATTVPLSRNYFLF
Experimental: Mechanistic studies were carried out to determine the mechanism of inhibition of 4-[2-(dipropylamino)ethyl]-1,3-dihydro-2H-indol-2-one ( Ropinirole) of the enzyme urease. In brief, urease enzyme solution (1 U/200 μL) was incubated with different concentrations of Ropinirole for 15 min at 30° C. The reaction was then initiated by adding different concentrations of substrate (0.5-4.0 mM), then phenol and alkali reagent were added and change in absorbance was measured for 50 minutes at 630 nm on microtitre plate reader (SpectraMax M5, Molecular Devices, Calif., USA). The Lineweaver-Burk plot was used to determine the type of inhibition, while secondary replot of Lineweaver-Burk plot and Dixon plots were used for the determination and confirmation of dissociation constants (Ki).
The EZ-Fit enzyme kinetics program (Perrella Scientific Inc., Amherst, USA) was employed to calculate the IC50 values. All graphs were plotted by using Grafit 7 (Erithacus Software Limited, UK). Values of the correlation coefficients, intercepts, slopes, and their standard errors were calculated by the linear regression analysis by using the same program. Each point in the constructed graphs represents the mean of the three experiments.

Chain of Jack bean (Canavalia ensiformis) urease (P07374 whole entry, looked up): as above

## CC(=O)NO [acetohydroxamic acid]
[1]; Jack bean urease, 100 mM urea, pH 6.8, 30° C., 15 min, triplicate, read-out: IC50 (urease inhibition)
  IC50: 41.5 ± 1.5 µM

## CCCN(CCC)CCc1cccc2c1CC(=O)N2 [Ropinirole, 4-[2-(Dipropylamino)ethyl]-1,3-dihydro-2H-indol-2-one]
[1]
  IC50: 11.7 ± 0.46 µM
[2]
  type of inhibition: mixed-type of inhibitor
